According to patent publication US8551721B2, “Bioluminescent detection of cyanohydroxy benzothiazole compounds” (Promega Corporation, priority 2008, dated 2013):
Each block holds one molecule with its values, some of them ahead of it.

How the values were obtained:
UGT isozymes = settings: cited from earlier work; for Isozymes Modulated: isozymes currently reported in the literature to be modulated by the compound
GST A1-1 = target: T1, GST A1-1 (Homo sapiens, UniProt P08263); experiment: Utilization of benzothiazole by GST A1-1; type: biochemical; settings: 55 minutes at room temperature; for light produced with GST A1-1 minus no enzyme, concentrated substrate: concentrated substrate solution (approximately 1 mg/mL diluted 1:100), glutathione; for light produced with GST A1-1 minus no enzyme, diluted substrate: substrate solution diluted 1:3.1, glutathione
T1 sequence (P08263 1-222): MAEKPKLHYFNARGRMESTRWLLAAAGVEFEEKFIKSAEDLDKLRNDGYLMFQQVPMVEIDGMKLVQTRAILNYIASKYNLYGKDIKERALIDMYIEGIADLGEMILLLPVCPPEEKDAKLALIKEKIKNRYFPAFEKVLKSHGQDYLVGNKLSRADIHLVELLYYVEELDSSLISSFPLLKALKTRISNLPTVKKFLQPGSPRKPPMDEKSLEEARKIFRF
Method: (§1) A small amount of compound 934-37 was dissolved in DMSO to produce a solution approximately 1 mg/mL. This solution was diluted 1:100 (v/v) into 50 mM HEPES buffer pH 7.5 to produce a substrate solution. Twenty μL of this solution was placed in 10 wells of a 96 well white luminometer plate (Promega part Z3291), then the solution was diluted 1:3.1 and 20 μL of the dilution was placed into another 10 wells in the luminometer plate.
(§2) D-Cysteine, 4 mg (Sigma Chemical Corp.; C8005-1 g, 017K1034) was dissolved into 1 mL of 50 mM HEPES buffer pH 7.5, then 4 μL added to 4 of the wells containing the substrate solution and 4 of the wells with diluted substrate solution to convert compound 934-37 to the corresponding luciferin derivative. The structures of these compounds are shown below.
(§3) A sample of GST A1-1 (1.2 mg/mL) and 100 μL of 100 mM glutathione in water was diluted into 5 mL of 50 mM HEPES pH 7.5, then 25 μL added to: two of the wells with unconverted, concentrated compound 934-37; 2 wells with concentrated and converted compound 934-37; and two of the wells with unconverted, diluted compound 934-37 and 2 of the wells with converted, diluted compound 934-37.
(§4) Glutathione (100 μL of 100 mM glutathione) had been diluted to 5 mL with 50 mM HEPES buffer pH 7.5, then 25 μL added to the remaining wells of converted and unconverted compound 934-37 in concentrated and diluted solution.
(§5) After 55 minutes at room temperature, 4 μL of the D-cysteine solution above was added to all wells that had not received cysteine before, then 50 μL of P450 Glo Luciferin Detection Reagent (made by dissolving a vial of Promega Luciferin Detection Reagent (Promega Part #V859B) with a vial of Promega P450-Glo Buffer (Promega Part #V865B). The plate was then placed into a Glo Max luminometer (Promega Corp.) and the light read after 15 minutes of incubation. The values obtained were averaged and the average value of the light produced from the wells given no enzyme were then subtracted from the average of the light produced with enzyme.

GST M1-1 = target: T2, GST M1-1 (Homo sapiens, UniProt P09488); experiment: Utilization of benzothiazole by GST M1-1; type: biochemical; settings: 55 minutes at room temperature; for light produced with GST M1-1 minus no enzyme, concentrated substrate: concentrated substrate solution (approximately 1 mg/mL diluted 1:100), glutathione; for light produced with GST M1-1 minus no enzyme, diluted substrate: substrate solution diluted 1:3.1, glutathione
T2 sequence (P09488 1-218): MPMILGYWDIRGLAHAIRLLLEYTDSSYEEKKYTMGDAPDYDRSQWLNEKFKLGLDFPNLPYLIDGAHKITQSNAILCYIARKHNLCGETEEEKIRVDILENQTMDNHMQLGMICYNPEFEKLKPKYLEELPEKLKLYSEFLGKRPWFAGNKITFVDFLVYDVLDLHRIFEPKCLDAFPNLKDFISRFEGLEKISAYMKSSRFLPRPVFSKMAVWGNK
Method: as §1, §2
as §3, with “M1-1” for “A1-1”, “glutathione” for “glutathione in water”
as §4, §5

[1] = system: endogenously expressed UGT isozymes in mammalian microsomes; experiment: Utilization of compounds by mammalian microsomes; type: biochemical; settings: 0.2 mg/mL microsomes, 50 μM compound, reactions run for 2 hours
Method: The invention includes a method of determining activity of the uridine 5′-diphospho-glucuronosyltransferase (UDP-glucuronosyltransferase, or UGT) family enzymes in vitro. […] Following the UGT enzyme reaction, an equal volume of P450-Glo Luciferin Detection Reagent (Promega) containing 15-30 mM D-cysteine-HCl.H2O (Sigma) was added and the plate was mixed and incubated at room temperature, typically for 20-30 minutes. P450-Glo Luciferin Detection Reagent can be prepared by dissolving a vial of Promega Luciferin Detection Reagent (Promega Part #V859B) with a vial of Promega P450-Glo Buffer (Promega Part #V865B).
(§6) During this incubation, the cysteine reacts with the cyanobenzathiozole substrate to yield a D-luciferin derivative. […] Therefore, activity of the UGT enzyme can be measured by analyzing the difference (lower or no output) in relative light units (RLU) of a sample in which glucuronidation occurs compared to a sample that was run under the same conditions with no added UDPGA cofactor.
Tissue microsomes were obtained from Xenotech LLC or BD Gentest.

mouse liver microsomes = experiment: Utilization of compound 3165 by mouse liver microsomes; type: biochemical; settings: 2 hours at 37° C., 0.2 mg/mL microsomes, 50 μM compound
Method: (§7) The invention includes a method of determining activity of the uridine 5′-diphospho-glucuronosyltransferase (UDP-glucuronosyltransferase, or UGT) family enzymes in vitro. Briefly, UGT enzymes from overexpressed insect microsomes (Supersomes™, BD Gentest™) or animal tissue microsomes (Xenotech, BD Gentest™) were incubated with a cyanobenzothiazole substrate of the invention and the cofactor UDP-glucuronic acid (UDPGA) at 37° C. in buffer at physiological pH containing MgCl2 and alamethicin (typically, 50 mM TES, pH 7.5, 8 mM MgCl2, 4 mM UDPGA (Sigma) and 25 μg/mL alamethicin (Sigma)). […]
as §6
(§8) The ability of endogenously expressed UGT isozymes to utilize compounds 3138 and 3165 as substrates was determined in a similar manner to the assays with recombinant microsomes (Example 1). […]

UGT 1A4 = target: T3, UGT 1A4 (Homo sapiens, UniProt P22310); experiment: UGT activity: utilization of substrate by recombinant UGT 1A4 Supersomes; type: biochemical; settings: 2 hour incubation at 37° C., plus vs minus UDPGA
T3 construct: purchased BD Gentest; host or cells: insect cells (microsomes)
T3 sequence (P22310 29-534): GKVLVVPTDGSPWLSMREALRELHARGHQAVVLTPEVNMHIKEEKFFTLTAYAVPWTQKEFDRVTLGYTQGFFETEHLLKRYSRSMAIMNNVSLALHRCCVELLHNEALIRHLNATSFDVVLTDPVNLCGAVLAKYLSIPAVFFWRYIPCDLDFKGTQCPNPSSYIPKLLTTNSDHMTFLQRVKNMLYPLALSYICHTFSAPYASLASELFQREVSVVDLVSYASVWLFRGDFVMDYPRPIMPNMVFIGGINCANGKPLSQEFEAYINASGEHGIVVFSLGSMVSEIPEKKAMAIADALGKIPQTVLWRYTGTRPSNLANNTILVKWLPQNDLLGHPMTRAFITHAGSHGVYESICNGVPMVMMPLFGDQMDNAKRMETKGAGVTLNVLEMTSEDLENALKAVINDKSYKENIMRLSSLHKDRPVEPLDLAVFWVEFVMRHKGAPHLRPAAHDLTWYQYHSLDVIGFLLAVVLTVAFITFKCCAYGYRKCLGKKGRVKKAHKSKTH
Method: The invention includes a method of determining activity of the uridine 5′-diphospho-glucuronosyltransferase (UDP-glucuronosyltransferase, or UGT) family enzymes in vitro. Briefly, UGT enzymes from overexpressed insect microsomes (Supersomes™, BD Gentest™) or animal tissue microsomes (Xenotech, BD Gentest™) were incubated with a cyanobenzothiazole substrate of the invention and the cofactor UDP-glucuronic acid (UDPGA) at 37° C. in buffer at physiological pH containing MgCl2 and alamethicin (typically, 50 mM TES, pH 7.5, 8 mM MgCl2, 4 mM UDPGA (Sigma) and 25 μg/mL alamethicin (Sigma)). Following the UGT enzyme reaction, an equal volume of P450-Glo Luciferin Detection Reagent (Promega) containing 15-30 mM D-cysteine-HCl.H2O (Sigma) was added and the plate was mixed and incubated at room temperature, typically for 20-30 minutes. P450-Glo Luciferin Detection Reagent can be prepared by dissolving a vial of Promega Luciferin Detection Reagent (Promega Part #V859B) with a vial of Promega P450-Glo Buffer (Promega Part #V865B).
as §6
In this example, a series of 12 recombinant UGTs expressed in insect microsomes (Supersomes™, BD Gentest™), as well as the control microsomes not expressing the UGT enzyme, were incubated with compound 3138, compound 3478, or compound 3165 as substrates, with or without the UDPGA co-factor. […]
Reactions were assembled in a white 96-well plate. […] After the incubation was completed, the plate was read on a Veritas™ luminometer (Turner BioSystems, Inc.; Sunnyvale, Calif.). […]

rat liver microsomes = experiment: Utilization of compound 3165 by rat liver microsomes; type: biochemical; settings: 2 hours at 37° C., 0.2 mg/mL microsomes, 50 μM compound
Method: as §7, §6, §8

human liver microsomes = experiment: Utilization of compound 3165 by human liver, renal and intestinal microsomes; type: biochemical; settings: 2 hours at 37° C., 0.2 mg/mL microsomes, 50 μM compound
Method: as §7, §6, §8

Compound: O=c1cc(C(F)(F)F)c2ccc(O)cc2o1 [7-hydroxy-4-trifluoromethyl coumarin]
- Isozymes Modulated (UGT isozymes): Substrate for 1A1, 1A3, 1A6, 1A9, 2B7

Compound: C=C[C@H]1C[N@@]2CC[C@H]1C[C@@H]2[C@@H](O)c1ccnc2ccc(OC)cc12 [Quinidine]
- Isozymes Modulated (UGT isozymes): 2B7 and 2B15, others to a lesser extent

Compound: CC(C)c1nc(CN(C)C(=O)N[C@H](C(=O)N[C@@H](Cc2ccccc2)C[C@H](O)[C@H](Cc2ccccc2)NC(=O)OCc2cncs2)C(C)C)cs1 [Ritonavir]
- inhibition of UGT isozymes as reported in the literature (UGT isozymes; literature report): inhibits UGT 1A 1 and 1A4, but has little effect on UGT 2B7

Compound: O=c1ccc2ccc(O)cc2o1 [Umbelliferne]
- Isozymes Modulated (UGT isozymes): Substrate of most isozymes

- light produced with GST A1-1 minus no enzyme, concentrated substrate (GST A1-1): 164,400 RLU
- light produced with GST A1-1 minus no enzyme, diluted substrate (GST A1-1): 195,021 RLU
- light produced with GST M1-1 minus no enzyme, concentrated substrate (GST M1-1): 41,212 RLU
- light produced with GST M1-1 minus no enzyme, diluted substrate (GST M1-1): 30,428 RLU
Compound: Cc1cc(S(=O)(=O)Oc2ccc3nc(C#N)sc3c2)ccc1[N+](=O)[O-] [compound 934-37]

Compound: Cc1cc(NCc2cccc(N)c2)cc2sc(C#N)nc12 [compound 3165]
- rate of utilization of compound 3165 by mammalian microsomes (compared with compound 3138) [1]: much slower
- utilization of compound 3165 by mouse liver microsomes (mouse liver microsomes): Activity was also seen for both rat and mouse liver microsomes
- utilization by UGT 1A4 (in words) (UGT 1A4): only utilized by UGT 1A4
- utilization of compound 3165 by rat liver microsomes (rat liver microsomes): Activity was also seen for both rat and mouse liver microsomes
- utilization of compound 3165: human liver vs human renal and intestinal microsomes (human liver microsomes): much higher for human liver microsomes than either human renal or human intestinal microsomes

- light produced with GST A1-1 minus no enzyme, concentrated substrate (GST A1-1): 6,410 RLU
- light produced with GST A1-1 minus no enzyme, diluted substrate (GST A1-1): 6,462 RLU
- light produced with GST M1-1 minus no enzyme, concentrated substrate (GST M1-1): 315,759 RLU
- light produced with GST M1-1 minus no enzyme, diluted substrate (GST M1-1): 213,920 RLU
Compound: Cc1cc(S(=O)(=O)Oc2ccc3nc(C4=N[C@@H](C(=O)O)CS4)sc3c2)ccc1[N+](=O)[O-] [converted compound 934-37]
